Test results from publication PMC7391767, “Molecular mechanisms underlying menthol binding and activation of TRPM8 ion channel” (Nature Communications, 2020).
Values joined by “and” are separate entries in the source; they are usually repeats but may differ in a detail not shown here. Equal values may be shown once. “Also recorded” adds a separate entry of the source. Read-outs that look alike come from different tables or passages of the source. One block for each compound: values may come before it.

How the values were obtained:
[1] = tested on: TRPM8; conditions: cited from earlier work
[2] = tested on: TRPV1; test: whole-cell patch-clamp recording in response to a voltage ramp; format: cell-based
Text: (b) Representative whole- cell patch- clamp recording of capsaicin activation of TRPV1 in response to a voltage ramp.

[3] = biological target: T1, TRPM8 W798A (Mus musculus, UniProt Q8R4D5, W798A); test: whole-cell patch-clamp and thermodynamic mutant cycle analysis; format: cell-based
T1 construct: expressed in transfected cells; host or cells: HEK293T
T1 sequence (Q8R4D5 whole entry W798A): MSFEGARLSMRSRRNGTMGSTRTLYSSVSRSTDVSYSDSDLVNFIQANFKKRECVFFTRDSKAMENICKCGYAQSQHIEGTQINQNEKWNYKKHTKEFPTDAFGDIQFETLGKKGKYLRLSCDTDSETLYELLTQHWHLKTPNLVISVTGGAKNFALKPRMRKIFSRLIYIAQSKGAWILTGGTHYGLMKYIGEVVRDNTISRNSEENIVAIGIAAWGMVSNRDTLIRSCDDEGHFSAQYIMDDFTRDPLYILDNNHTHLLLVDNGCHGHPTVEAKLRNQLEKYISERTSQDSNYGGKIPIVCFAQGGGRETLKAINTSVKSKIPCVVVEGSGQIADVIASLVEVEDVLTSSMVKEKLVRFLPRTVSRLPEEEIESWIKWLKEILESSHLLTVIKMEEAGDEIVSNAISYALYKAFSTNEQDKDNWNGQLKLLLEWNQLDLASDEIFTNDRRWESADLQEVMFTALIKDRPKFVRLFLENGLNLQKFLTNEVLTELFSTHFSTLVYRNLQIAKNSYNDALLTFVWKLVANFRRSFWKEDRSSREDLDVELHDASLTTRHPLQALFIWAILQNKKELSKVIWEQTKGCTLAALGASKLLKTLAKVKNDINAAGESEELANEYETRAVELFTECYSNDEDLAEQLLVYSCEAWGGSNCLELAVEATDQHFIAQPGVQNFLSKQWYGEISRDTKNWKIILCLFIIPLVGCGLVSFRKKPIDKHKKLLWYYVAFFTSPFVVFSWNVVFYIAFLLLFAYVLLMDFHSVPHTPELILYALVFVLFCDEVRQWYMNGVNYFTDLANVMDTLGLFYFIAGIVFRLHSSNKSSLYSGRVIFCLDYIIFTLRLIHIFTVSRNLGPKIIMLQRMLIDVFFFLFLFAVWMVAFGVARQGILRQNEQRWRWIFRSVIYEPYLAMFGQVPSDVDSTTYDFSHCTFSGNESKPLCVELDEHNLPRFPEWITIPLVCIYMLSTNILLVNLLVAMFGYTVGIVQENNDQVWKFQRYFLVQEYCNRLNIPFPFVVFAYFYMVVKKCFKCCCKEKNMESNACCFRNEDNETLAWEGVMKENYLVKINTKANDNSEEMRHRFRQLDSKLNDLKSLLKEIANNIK
Experimental: (§1) Murine TRPM8 was used in this study. Point mutations were made by Fast Mutagenesis Kit V2 (SBS Genetech). Primers used to generate point mutations are summarized in Supplementary Table 2.
(§2) HEK293T cells purchased from Kunming Cell Bank, Kunming Institute of Zoology, Chinese Academy of Sciences (ATCC, CRL-3216) were cultured in Dulbecco’s modified Eagle’s medium supplemented with 20 mM L-glutamine and 10% fetal bovine serum. Cells were transiently transfected with cDNA constructs by Lipofectamine 3000 (Life Technologies) following the manufacturer’s protocol. Patch-clamp recordings were performed 1–2 days after transfection.
(§3) Patch-clamp recordings were performed with a HEKA EPC10 amplifier controlled by PatchMaster software (HEKA). Whole-cell recordings were performed at ±80 mV. Patch pipettes were prepared from borosilicate glass and fire-polished to resistance of ~4 MΩ. For whole-cell recording, serial resistance was compensated by 60%. For single-channel recordings, patch pipettes were fire-polished to a higher resistance of 6-to-10 MΩ and then recorded in the inside-out configuration. To maximize the chance of obtaining a patch with only one channel, single-channel recordings were performed about 8 h after transfection. A solution with 130 mM NaCl, 10 mM glucose, 0.2 mM EDTA, and 3 mM HEPES (pH 7.2) was used in both bath and pipette for either whole-cell or single-channel recordings. Membrane potential was clamped at +80 mV for single-channel recordings. Current was sampled at 10 kHz and filtered at 2.9 kHz. All recordings were performed at room temperature (22 °C) with the maximum variation of 1 °C.
(§4) Ligands such as menthol and its analogs were perfused to membrane patch by a gravity-driven system (RSC-200, Bio-Logic). Bath and ligand solution were delivered through separate tubes to minimize the mixing of solutions. Patch pipette was placed in front of the perfusion tube outlet.
(§5) Data from whole-cell recordings were analyzed in Igor Pro version 6.1 (WaveMatrix). EC50 values were derived from fitting a Hill equation to the concentration–response relationship. […] To distinguish these possibilities, dissociation constant (Kd) for ligand binding was estimated assuming the following gating scheme:1 C0↔KdC1↔LO, where L is the equilibrium constant for the final closed-to-open transition.
(§6) To perform thermodynamic cycle analysis, Kd values of four channel-ligand combinations (WT channel, menthol: Kd _1; Mutant channel, menthol: Kd _2; WT channel, menthol analog: Kd _3; Mutant channel, menthol analog: Kd _4) were determined separately. The strength of coupling was determined by the coupling energy (kT multiplied by LnΩ, where k is the Boltzmann constant and T is temperature in Kelvin). LnΩ was calculated by Eq. (2) as[51]2 LnΩ=LnKd_1⋅Kd_4/Kd_2⋅Kd_3.

[4] = biological target: T2, TRPM8 D802L (Mus musculus, UniProt Q8R4D5, D802L); test: as above; format: cell-based
T2 construct: expressed in transfected cells; host or cells: HEK293T
T2 sequence (Q8R4D5 whole entry D802L): as the sequence (Q8R4D5 whole entry W798A) above, with A798W, D802L counted along it
Experimental: as §1, §2, §3, §4, §5, §6

[5] = biological target: T3, TRPM8 L797A (Mus musculus, UniProt Q8R4D5, L797A); test: as above; format: cell-based
T3 construct: expressed in transfected cells; host or cells: HEK293T
T3 sequence (Q8R4D5 whole entry L797A): as the sequence (Q8R4D5 whole entry W798A) above, with L797A, A798W counted along it
Experimental: as §1, §2, §3, §4, §5, §6

[6] = biological target: T4, TRPM8 Y1005F (Mus musculus, UniProt Q8R4D5, Y1005F); test: as above; format: cell-based
T4 construct: expressed in transfected cells; host or cells: HEK293T
T4 sequence (Q8R4D5 whole entry Y1005F): as the sequence (Q8R4D5 whole entry W798A) above, with A798W, Y1005F counted along it
Experimental: as §1, §2, §3, §4, §5, §6

[7] = biological target: T5, TRPM8 D802S (Mus musculus, UniProt Q8R4D5, D802S); test: as above; format: cell-based
T5 construct: expressed in transfected cells; host or cells: HEK293T
T5 sequence (Q8R4D5 whole entry D802S): as the sequence (Q8R4D5 whole entry W798A) above, with A798W, D802S counted along it
Experimental: as §1, §2, §3, §4, §5, §6

[8] = biological target: T6, TRPM8 R842K (Mus musculus, UniProt Q8R4D5, R842K); test: as above; format: cell-based
T6 construct: expressed in transfected cells; host or cells: HEK293T
T6 sequence (Q8R4D5 whole entry R842K): as the sequence (Q8R4D5 whole entry W798A) above, with A798W, R842K counted along it
Experimental: as §1, §2, §3, §4, §5, §6

[9] = biological target: T7, TRPM8 D802I (Mus musculus, UniProt Q8R4D5, D802I); test: as above; format: cell-based
T7 construct: expressed in transfected cells; host or cells: HEK293T
T7 sequence (Q8R4D5 whole entry D802I): as the sequence (Q8R4D5 whole entry W798A) above, with A798W, D802I counted along it
Experimental: as §1, §2, §3, §4, §5, §6

[10] = biological target: T8, wild-type TRPM8 (Mus musculus, UniProt Q8R4D5); test: whole-cell patch-clamp recording of ligand activation; format: cell-based
T8 construct: expressed in transfected cells; host or cells: HEK293T
T8 sequence (Q8R4D5 whole entry): as the sequence (Q8R4D5 whole entry W798A) above, with A798W counted along it
Experimental: as §1
Cells were transiently transfected with cDNA constructs by Lipofectamine 3000 (Life Technologies) following the manufacturer’s protocol. Patch-clamp recordings were performed 1–2 days after transfection.
as §3, §4, §5

[11] = biological target: T8, wild-type TRPM8; test: open probability from noise analysis of macroscopic current and single-channel recordings; format: cell-based; conditions: wild-type TRPM8; near saturating concentration (menthol 500 µM)
Experimental: as §3
From single-channel recordings, the open probability (Po) was calculated after events detection with a hidden Markov approach in the software QuB[49] (http://www.qub.buffalo.edu/). A dead time of 0.32 ms was imposed. As a complementary approach, Po was also estimated from noise analysis[52] of whole-cell recordings. Briefly, the mean current amplitude (I), the squared deviations in current amplitude from the mean value (σ^2), and the single-channel current (i) were measured experimentally from a membrane patch of ion channels. Then the number of ion channels clamped in that patch (N) was determined as3 N=I^2/i⋅I−σ^2.
The maximum current when each of ion channel is at the open state with a Po of 1 is equal to i × N. Then the open probability was calculated as the ratio between the measured macroscopic current and the maximum current calculated by noise analysis. To estimate channel conductance, current amplitude was estimated from all-point histogram of single-channel recordings.

[12] = biological target: T9, TRPM8 Y745F (Mus musculus, UniProt Q8R4D5, Y745F); test: whole-cell patch-clamp and thermodynamic mutant cycle analysis; format: cell-based
T9 construct: expressed in transfected cells; host or cells: HEK293T
T9 sequence (Q8R4D5 whole entry Y745F): as the sequence (Q8R4D5 whole entry W798A) above, with Y745F, A798W counted along it
Experimental: Murine TRPM8 was used in this study. Point mutations were made by Fast Mutagenesis Kit V2 (SBS Genetech). Primers used to generate point mutations are summarized in Supplementary Table 2. All mutations were confirmed by sequencing.
as §2, §3, §4
Data from whole-cell recordings were analyzed in Igor Pro version 6.1 (WaveMatrix). EC50 values were derived from fitting a Hill equation to the concentration–response relationship. Changes in EC50 by point mutation may be caused by either perturbation of ligand bind or channel gating or both. To distinguish these possibilities, dissociation constant (Kd) for ligand binding was estimated assuming the following gating scheme:1 C0↔KdC1↔LO, where L is the equilibrium constant for the final closed-to-open transition.
as §6

[13] = mutant cycle menthol vs labelled analog

Compound: C[C@H](c1ccc(F)cc1)N(Cc1cccc(C(=O)O)c1)C(=O)c1cnc2ccccc2c1 [PF-05105679]
effect on cold-related pain [1]: effectively suppress cold-related pain | temperature sensation (side effect) ([1]; patients, clinical trials): side effects of altering temperature sensation; also recorded: altered temperature sensation in patients

Compound: COc1cc(CNC(=O)CCCC/C=C/C(C)C)ccc1O [capsaicin]
effect of deep hyperpolarization on ligand-activated channel [2]: not antagonized

Ratio X2 (Kd menthol / Kd labelled analog) [3]: 0.21 | Omega(X1/X2) ([3]; menthol vs labelled analog): 2.89 | Coupling Energy [3, 13]: 1.06 kT | Ratio X2 (Kd menthol / Kd labelled analog) [4]: 3.06 | Omega(X1/X2) ([4]; menthol vs labelled analog): 0.20 | Coupling Energy [4, 13]: 1.60 kT | Ratio X2 (Kd menthol / Kd labelled analog) [5]: 1.22 | Omega(X1/X2) ([5]; menthol vs labelled analog): 0.51 | Coupling Energy [5, 13]: 0.67 kT | Ratio X2 (Kd menthol / Kd labelled analog) [6]: 0.15 | Omega(X1/X2) ([6]; menthol vs labelled analog): 4.12 | Coupling Energy [6, 13]: 1.42 kT | Ratio X2 (Kd menthol / Kd labelled analog) [7]: 2.58 | Omega(X1/X2) ([7]; menthol vs labelled analog): 0.24 | Coupling Energy [7, 13]: 1.42 kT | L (equilibrium constant between closed and open states upon ligand binding), Ave [8]: 0.246 | Ratio X2 (Kd menthol / Kd labelled analog) [8]: 4.90 | concentration–response curve value, ave ([8]; 800 microM): 0.04014 | concentration–response curve value, ave ([8]; 1000 microM): 0.05391 | concentration–response curve value, ave ([8]; 5000 microM): 0.1385 | Kd ([8]; calculated from concentration–response curves, read-out: Kd, Ave): 1780 µM | Omega(X1/X2) ([8]; menthol vs labelled analog): 0.13 | Coupling Energy [8, 13]: 2.07 kT | Kd ([8]; read-out: Kd, single recording): 1120 µM and 2990 µM and 1510 µM and 1500 µM | Ratio X2 (Kd menthol / Kd labelled analog) [9]: 1.35 | Omega(X1/X2) ([9]; menthol vs labelled analog): 0.46 | Coupling Energy [9, 13]: 0.78 kT | L (equilibrium constant between closed and open states upon ligand binding), Ave ([10]; WT): 0.9574 | L, single recording ([10]; WT): 1.13 and 1.132 and 0.6097 | Ratio X1 (Kd menthol / Kd labelled analog) ([10]; WT): 0.62 | concentration–response curve value, ave ([10]; WT, 100 microM): 0.02705 | concentration–response curve value, single recording ([10]; WT, 100 microM): 0.02655 and 0.02755 | concentration–response curve value, ave ([10]; WT, 700 microM): 0.1118 | concentration–response curve value, single recording ([10]; WT, 700 microM): 0.1118 | concentration–response curve value, ave ([10]; WT, 800 microM): 0.223 | concentration–response curve value, ave ([10]; WT, 1000 microM): 0.4153 | concentration–response curve value, single recording ([10]; WT, 1000 microM): 0.3958 and 0.4096 and 0.4406 | concentration–response curve value, ave ([10]; WT, 5000 microM): 0.5864 | concentration–response curve value, single recording ([10]; WT, 5000 microM): 0.584 and 0.6851 and 0.4903 | concentration–response curve value, ave ([10]; WT, 10000 microM): 0.596 | concentration–response curve value, single recording ([10]; WT, 10000 microM): 0.562 and 0.63 | Kd ([10]; WT, read-out: Kd, single recording): 1400 µM and 2020 µM and 1340 µM | EC50 ([10]; wild-type TRPM8, Hill equation fit of concentration–response, patch-clamp): 813 ± 84.3 µM | maximum open probability (Po max) [11]: 0.48 ± 0.05 | Ratio X2 (Kd menthol / Kd labelled analog) [12]: 1.11 | Omega(X1/X2) ([12]; menthol vs labelled analog): 0.56 | Coupling Energy [12, 13]: 0.59 kT
Compound: CC(C)[C@@H]1CC[C@@H](C)CC1=O [menthone, (−)-menthone]
concentration–response curve value, single recording ([8]; 800 microM): 0.05631 and 0.03329 and 0.03847 and 0.03248 | concentration–response curve value, single recording ([8]; 1000 microM): 0.07259 and 0.05411 and 0.04679 and 0.04215
